# Experimental data as given in paper PMC12235045, “Structural insights into allosteric inhibition of HRI kinase by heme binding via HDX-MS” (Biochemical Journal, 2025).
# pIC50: −log10 of the molar value. Read-outs that look alike come from different tables or passages of the source.
# Experiments:
# [1] = biological target: T1, Heme-regulated inhibitor (HRI) (Homo sapiens, UniProt Q9BQI3); test: ADP-GLO kinase assay with eIF2α substrate; supported by nanoDSF (+[…] °C at […]) and Phos-tag gels; assay type: biochemical
# T1 construct: gene EIF2AK1; N-terminally His-tagged human HRI, dephosphorylated, from E. coli
# T1 sequence (Q9BQI3 whole entry): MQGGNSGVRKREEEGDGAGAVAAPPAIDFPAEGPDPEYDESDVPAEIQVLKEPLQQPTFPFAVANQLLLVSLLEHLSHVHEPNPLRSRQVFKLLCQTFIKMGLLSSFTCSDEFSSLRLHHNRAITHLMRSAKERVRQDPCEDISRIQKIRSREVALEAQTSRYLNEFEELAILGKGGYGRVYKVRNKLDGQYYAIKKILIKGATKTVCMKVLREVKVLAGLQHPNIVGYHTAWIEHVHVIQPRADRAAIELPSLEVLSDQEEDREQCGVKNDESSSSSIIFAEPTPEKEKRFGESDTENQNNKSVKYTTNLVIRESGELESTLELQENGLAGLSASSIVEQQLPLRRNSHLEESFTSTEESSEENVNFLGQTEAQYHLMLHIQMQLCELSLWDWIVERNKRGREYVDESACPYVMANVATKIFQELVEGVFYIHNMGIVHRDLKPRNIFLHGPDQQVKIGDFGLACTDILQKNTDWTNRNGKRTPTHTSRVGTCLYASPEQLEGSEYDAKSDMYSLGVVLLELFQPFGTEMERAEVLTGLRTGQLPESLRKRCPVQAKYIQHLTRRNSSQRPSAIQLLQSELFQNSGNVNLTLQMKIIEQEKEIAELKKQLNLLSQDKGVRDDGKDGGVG
# [2] = biological target: T1, Heme-regulated inhibitor (HRI); test: as above; assay type: biochemical; remark: listed apart in the source
SMILES,pIC50 [1],pIC50 [2]
COc1ncc(Cl)cc1S(=O)(=O)Nc1ccc(F)c(C#Cc2cnc(N)nc2)c1F [GCN2iB],6.21,
COC(=O)N[C@@H](C)CNc1nccc(-c2cn(C(C)C)nc2-c2cc(Cl)cc(NS(C)(=O)=O)c2F)n1 [encorafenib],,5.97
